Patent publication US9226916B2, “Pyrrolidine derivatives” (HOFFMANN-LA ROCHE INC., priority 2009, dated 2016)

Target: T1, recombinant human NK3 receptor (Homo sapiens, UniProt P29371)
T1 construct: expressed in transfected cells; host or cells: HEK293 cells, transient expression; membranes
T1 sequence (P29371 1-465): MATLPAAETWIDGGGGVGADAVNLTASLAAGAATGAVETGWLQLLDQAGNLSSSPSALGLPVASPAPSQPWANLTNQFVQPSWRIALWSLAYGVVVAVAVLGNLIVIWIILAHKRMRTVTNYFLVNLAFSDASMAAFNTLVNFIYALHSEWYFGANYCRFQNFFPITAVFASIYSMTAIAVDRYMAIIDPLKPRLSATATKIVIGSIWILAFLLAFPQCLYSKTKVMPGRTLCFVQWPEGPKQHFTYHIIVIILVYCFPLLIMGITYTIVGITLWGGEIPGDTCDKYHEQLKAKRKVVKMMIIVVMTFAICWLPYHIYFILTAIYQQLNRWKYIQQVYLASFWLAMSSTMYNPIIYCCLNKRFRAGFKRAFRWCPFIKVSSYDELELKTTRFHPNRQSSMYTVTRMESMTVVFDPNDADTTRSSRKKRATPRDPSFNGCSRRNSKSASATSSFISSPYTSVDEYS
Test: [3H]SR142801 competition binding assay

Row | SMILES | Ki [nM]
1 | CN(C(=O)Oc1ccc(F)cc1)[C@@H]1CN(C(=O)C2CCN(C(=O)CC#N)CC2)C[C@H]1c1ccc(Cl)c(Cl)c1 [Example 271, [(3S,4R)-1-[1-(2-Cyano-acetyl)-piperidine-4-carbonyl]-4-(3,4-dichloro-phenyl)-pyrrolidin-3-yl]-methyl-carbamic acid 4-fluoro-phenyl ester] | 0.1
2 | CN(C(=O)Oc1ccc(F)cc1)[C@@H]1CN(C(=O)C2CCN(C(=O)C3(C#N)CC3)CC2)C[C@H]1c1ccc(Cl)c(Cl)c1 [Example 272, [(3S,4R)-1-[1-(1-Cyano-cyclopropanecarbonyl)-piperidine-4-carbonyl]-4-(3,4-dichloro-phenyl)-pyrrolidin-3-yl]-methyl-carbamic acid 4-fluoro-phenyl ester] | 0.8
3 | CN(C(=O)Oc1ccc(F)cc1)[C@@H]1CN(C(=O)C2CCN(C(=O)C3(C(F)(F)F)CC3)CC2)C[C@H]1c1ccc(Cl)c(Cl)c1 [Example 273, {(3S,4R)-4-(3,4-Dichloro-phenyl)-1-[1-(1-trifluoromethyl-cyclopropanecarbonyl)-piperidine-4-carbonyl]-pyrrolidin-3-yl}-methyl-carbamic acid 4-fluoro-phenyl ester] | 0.4
4 | CN(C(=O)Oc1ccc(F)cc1)[C@@H]1CN(C(=O)C2CCN(C(=O)C3CC3(F)F)CC2)C[C@H]1c1ccc(Cl)c(Cl)c1 (stereo partly drawn) [Example 274, {(3S,4R)-4-(3,4-Dichloro-phenyl)-1-[1-(2,2-difluoro-cyclopropanecarbonyl)-piperidine-4-carbonyl]-pyrrolidin-3-yl}-methyl-carbamic acid 4-fluoro-phenyl ester] | 0.9
5 | CN(C(=O)Oc1ccc(F)cc1)[C@@H]1CN(C(=O)C2CCN(C(=O)C3CCOCC3)CC2)C[C@H]1c1ccc(Cl)c(Cl)c1 [Example 275, {(3S,4R)-4-(3,4-Dichloro-phenyl)-1-[1-(tetrahydro-pyran-4-carbonyl)-piperidine-4-carbonyl]-pyrrolidin-3-yl}-methyl-carbamic acid 4-fluoro-phenyl ester] | 0.9
6 | CN(C(=O)Oc1ccc(F)cc1)[C@@H]1CN(C(=O)C2CCN(C(=O)C3CCOC(C)(C)C3)CC2)C[C@H]1c1ccc(Cl)c(Cl)c1 (stereo partly drawn) [Example 276, {(3S,4R)-4-(3,4-Dichloro-phenyl)-1-[1-(2,2-dimethyl-tetrahydro-pyran-4-carbonyl)-piperidine-4-carbonyl]-pyrrolidin-3-yl}-methyl-carbamic acid 4-fluoro-phenyl ester] | 1
7 | COCC1(C(=O)N2CCC(C(=O)N3C[C@@H](N(C)C(=O)Oc4ccc(F)cc4)[C@H](c4ccc(Cl)c(Cl)c4)C3)CC2)CC1 [Example 277, {(3S,4R)-4-(3,4-Dichloro-phenyl)-1-[1-(1-methoxymethyl-cyclopropanecarbonyl)-piperidine-4-carbonyl]-pyrrolidin-3-yl}-methyl-carbamic acid 4-fluoro-phenyl ester] | 0.5
8 | CN(C(=O)Oc1ccc(F)cc1)[C@@H]1CN(C(=O)C2CCN(C(=O)C3CC3(C)C)CC2)C[C@H]1c1ccc(Cl)c(Cl)c1 (stereo partly drawn) [Example 278, {(3S,4R)-4-(3,4-Dichloro-phenyl)-1-[1-(2,2-dimethyl-cyclopropanecarbonyl)-piperidine-4-carbonyl]-pyrrolidin-3-yl}-methyl-carbamic acid 4-fluoro-phenyl ester] | 0.6
9 | CN(C(=O)Oc1ccc(F)cc1)[C@@H]1CN(C(=O)C2CCN(C(=O)c3ccc(C(F)(F)F)cn3)CC2)C[C@H]1c1ccc(Cl)c(Cl)c1 [Example 279, {(3S,4R)-4-(3,4-Dichloro-phenyl)-1-[1-(5-trifluoromethyl-pyridine-2-carbonyl)-piperidine-4-carbonyl]-pyrrolidin-3-yl}-methyl-carbamic acid 4-fluoro-phenyl ester] | 2
10 | CN(C(=O)Oc1ccc(F)cc1)[C@@H]1CN(C(=O)C2CCN(C(=O)c3ccc(F)cn3)CC2)C[C@H]1c1ccc(Cl)c(Cl)c1 [Example 280, {(3S,4R)-4-(3,4-Dichloro-phenyl)-1-[1-(5-fluoro-pyridine-2-carbonyl)-piperidine-4-carbonyl]-pyrrolidin-3-yl}-methyl-carbamic acid 4-fluoro-phenyl ester] | 0.8
11 | CN(C(=O)Oc1ccc(F)cc1)[C@@H]1CN(C(=O)C2CCN(C(=O)C3CCC(=O)NC3)CC2)C[C@H]1c1ccc(Cl)c(Cl)c1 (stereo partly drawn) [Example 281, {(3S,4R)-4-(3,4-Dichloro-phenyl)-1-[1-(6-oxo-piperidine-3-carbonyl)-piperidine-4-carbonyl]-pyrrolidin-3-yl}-methyl-carbamic acid 4-fluoro-phenyl ester] | 0.3
12 | CC(C)N1CC(C(=O)N2CCC(C(=O)N3C[C@@H](N(C)C(=O)Oc4ccc(F)cc4)[C@H](c4ccc(Cl)c(Cl)c4)C3)CC2)CCC1=O (stereo partly drawn) [Example 282, {(3S,4R)-4-(3,4-Dichloro-phenyl)-1-[1-(1-isopropyl-6-oxo-piperidine-3-carbonyl)-piperidine-4-carbonyl]-pyrrolidin-3-yl}-methyl-carbamic acid 4-fluoro-phenyl ester] | 2
13 | CC(=O)N1CCC(C(=O)N2C[C@@H](N(C)C(=O)Oc3ccc(F)cc3)[C@H](c3ccc(Cl)c(Cl)c3)C2)CC1 [Example 283, [(3S,4R)-1-(1-Acetyl-piperidine-4-carbonyl)-4-(3,4-dichloro-phenyl)-pyrrolidin-3-yl]-methyl-carbamic acid 4-fluoro-phenyl ester] | 0.7
14 | CN(C(=O)Oc1ccc(F)cc1)[C@@H]1CN(C(=O)C2CCN(C(=O)CC#N)CC2)C[C@H]1c1ccc(F)cc1 [Example 284, [(3S,4R)-1-[1-(2-Cyano-acetyl)-piperidine-4-carbonyl]-4-(4-fluoro-phenyl)-pyrrolidin-3-yl]-methyl-carbamic acid 4-fluoro-phenyl ester] | 31.1
15 | CC(=O)N1CCC(C(=O)N2C[C@@H](N(C)C(=O)Oc3ccc(F)cc3)[C@H](c3ccc(F)cc3)C2)CC1 [Example 285, [(3S,4R)-1-(1-Acetyl-piperidine-4-carbonyl)-4-(4-fluoro-phenyl)-pyrrolidin-3-yl]-methyl-carbamic acid 4-fluoro-phenyl ester] | 19.1
16 | CN(C(=O)Oc1ccc(F)cc1)[C@@H]1CN(C(=O)C2CCN(C(=O)C3(C)COC3)CC2)C[C@H]1c1ccc(F)cc1 [Example 286, {(3S,4R)-4-(4-Fluoro-phenyl)-1-[1-(3-methyl-oxetane-3-carbonyl)-piperidine-4-carbonyl]-pyrrolidin-3-yl}-methyl-carbamic acid 4-fluoro-phenyl ester] | 25.4
17 | CN(C(=O)Oc1ccc(F)cc1)[C@@H]1CN(C(=O)C2CCN(C(=O)C3CC(F)C3)CC2)C[C@H]1c1ccc(F)cc1 (stereo partly drawn) [Example 287, [(3S,4R)-1-[1-(3-Fluoro-cyclobutanecarbonyl)-piperidine-4-carbonyl]-4-(4-fluoro-phenyl)-pyrrolidin-3-yl]-methyl-carbamic acid 4-fluoro-phenyl ester] | 7.2
18 | CN(C(=O)Oc1ccc(F)cc1)[C@@H]1CN(C(=O)C2CCN(C(=O)C3(C#N)CC3)CC2)C[C@H]1c1ccc(F)cc1 [Example 288, [(3S,4R)-1-[1-(1-Cyano-cyclopropanecarbonyl)-piperidine-4-carbonyl]-4-(4-fluoro-phenyl)-pyrrolidin-3-yl]-methyl-carbamic acid 4-fluoro-phenyl ester] | 26.6
19 | CN(C(=O)Oc1ccc(F)cc1)[C@@H]1CN(C(=O)C2CCN(C(=O)C3(C(F)(F)F)CCC3)CC2)C[C@H]1c1ccc(F)cc1 [Example 289, {(3S,4R)-4-(4-Fluoro-phenyl)-1-[1-(1-trifluoromethyl-cyclobutanecarbonyl)-piperidine-4-carbonyl]-pyrrolidin-3-yl}-methyl-carbamic acid 4-fluoro-phenyl ester] | 11
20 | CN(C(=O)Oc1ccc(F)cc1)[C@@H]1CN(C(=O)C2CCN(C(=O)c3ccc(C(F)(F)F)cn3)CC2)C[C@H]1c1ccc(F)cc1 [Example 290, {(3S,4R)-4-(4-Fluoro-phenyl)-1-[1-(5-trifluoromethyl-pyridine-2-carbonyl)-piperidine-4-carbonyl]-pyrrolidin-3-yl}-methyl-carbamic acid 4-fluoro-phenyl ester] | 99.8
21 | CN(C(=O)Oc1ccc(F)cc1)[C@@H]1CN(C(=O)C2CCN(C(=O)C3CCC(=O)NC3)CC2)C[C@H]1c1ccc(F)cc1 (stereo partly drawn) [Example 291, {(3S,4R)-4-(4-Fluoro-phenyl)-1-[1-(6-oxo-piperidine-3-carbonyl)-piperidine-4-carbonyl]-pyrrolidin-3-yl}-methyl-carbamic acid 4-fluoro-phenyl ester] | 144
22 | CN(C(=O)Oc1ccc(F)cc1)[C@@H]1CN(C(=O)C2CCN(C(=O)[C@@H]3CC(=O)N3)CC2)C[C@H]1c1ccc(Cl)c(Cl)c1 [Example 292, {(3S,4R)-4-(3,4-Dichloro-phenyl)-1-[1-((S)-4-oxo-azetidine-2-carbonyl)-piperidine-4-carbonyl]-pyrrolidin-3-yl}-methyl-carbamic acid 4-fluoro-phenyl ester] | 0.04
23 | Cc1cc(OC(=O)N(C)[C@@H]2CN(C(=O)C3CCN(C(=O)C4(C)CC4)CC3)C[C@H]2c2ccc(Cl)c(Cl)c2)cc(C)n1 [Example 294, {(3S,4R)-4-(3,4-Dichloro-phenyl)-1-[1-(1-methyl-cyclopropanecarbonyl)-piperidine-4-carbonyl]-pyrrolidin-3-yl}-methyl-carbamic acid 2,6-dimethyl-pyridin-4-yl ester] | 11.2
